Results published in ChEMBL document CHEMBL1938266, “A three-step protocol for lead optimization: quick identification of key conformational features and functional groups in the SAR studies of non-ATP competitive MK2 (MAPKAPK2) inhibitors” (Bioorg Med Chem Lett, 2012).

Assays:
[1] = target: T1, MAP kinase-activated protein kinase 2 (Homo sapiens, UniProt P49137); assay: Inhibition of human MK2
THP-1 = assay: Inhibition of LPS-stimulated TNFalpha production in human THP1 cells by ELISA; type: functional, cell-based
[2] = target: T1, MAP kinase-activated protein kinase 2; assay: Inhibition of MK2-mediated HSP27 phosphorylation by cell-based assay

T1 sequence (P49137 whole entry): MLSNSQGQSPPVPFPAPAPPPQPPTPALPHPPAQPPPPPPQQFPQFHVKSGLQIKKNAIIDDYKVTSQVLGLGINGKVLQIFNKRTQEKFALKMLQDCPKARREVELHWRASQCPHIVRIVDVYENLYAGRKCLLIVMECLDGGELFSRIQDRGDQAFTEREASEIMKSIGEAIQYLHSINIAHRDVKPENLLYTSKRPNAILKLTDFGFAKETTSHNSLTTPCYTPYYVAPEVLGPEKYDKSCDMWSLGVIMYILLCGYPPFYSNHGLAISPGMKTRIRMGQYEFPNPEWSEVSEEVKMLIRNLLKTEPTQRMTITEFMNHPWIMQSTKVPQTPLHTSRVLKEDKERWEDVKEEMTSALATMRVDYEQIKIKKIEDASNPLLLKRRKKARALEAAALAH

Row | Structure (SMILES) | IC50 ([1]; read-out: IC50) [nM] | EC50 (THP-1) [nM] | EC50 [2] [nM] | IC50 [1]
1 | COc1ccc(-c2ccccc2CN(C(=O)c2ccc(-c3ccc(C#N)cc3)o2)c2ccc(N3CCNCC3)cc2)cn1 | 43 | – | – | –
2 | N#Cc1ccc(-c2ccc(C(=O)N(Cc3cccc(-c4ccncc4)c3)c3ccc(N4CCNCC4)cc3)o2)cc1 | 110 | – | – | –
3 | N#Cc1ccc(-c2ccc(C(=O)N(Cc3cccnc3-c3cncnc3)c3ccc(N4CCNCC4)cc3)o2)cc1 | 100 | – | – | –
4 | N#Cc1ccc(-c2ccc(C(=O)N(Cc3ccc(-c4ccccc4)cc3)c3ccc(N4CCNCC4)cc3)o2)cc1 | 41 | 6690 | – | –
5 | CN1CCN(CCCN(Cc2ccccn2)C(=O)c2ccc(-c3ccc(C#N)cc3)o2)CC1 | 10000 | – | – | –
6 | COc1cccc(-c2ccccc2CN(C(=O)c2ccc(-c3ccc(C#N)cc3)o2)c2ccc(N3CCNCC3)cc2)c1 | 12 | – | – | –
7 | N#Cc1ccc(-c2ccc(C(=O)N(Cc3cccc(-c4ccccc4)c3)c3ccc(N4CCNCC4)cc3)o2)cc1 | 70 | 28100 | – | –
8 | N#Cc1ccc(-c2ccc(C(=O)N(Cc3ccccc3-c3ccccc3)c3ccc(N4CCNCC4)cc3)o2)cc1 | 9 | 3460 | – | –
9 | N#Cc1ccc(-c2ccc(C(=O)N(Cc3ccccc3-c3ccccc3)c3ccc(N4CCNCC4)cc3)o2)cn1 | 258 | – | – | –
10 | N#Cc1ccc(-c2ccc(C(=O)N(Cc3ccccn3)C3CCNCC3)o2)cc1 | 10000 | – | – | –
11 | N#Cc1ccc(-c2ccc(C(=O)N(Cc3ccccc3-c3cncnc3)c3ccc(N4CCNCC4)cc3)o2)cc1 | 27 | 880 | – | –
12 | N#Cc1ccc(-c2ccc(C(=O)N(Cc3ccccc3-c3ccccn3)c3ccc(N4CCNCC4)cc3)o2)cc1 | 14 | 2540 | – | –
13 | N#Cc1ccc(-c2ccc(C(=O)N(Cc3ccccc3-c3cccnc3)c3ccc(N4CCNCC4)cc3)o2)cc1 | 9 | 1240 | – | –
14 | N#Cc1ccc(-c2ccc(C(=O)N(Cc3ccccc3-c3ccccc3F)c3ccc(N4CCNCC4)cc3)o2)cc1 | 12 | – | – | –
15 | COc1ccccc1-c1ncccc1CN(C(=O)c1ccc(-c2ccc(C#N)cc2)o1)c1ccc(N2CCNCC2)cc1 | 12 | 734 | – | –
16 | O=C(c1ccc(-c2ccc(Cl)cc2)o1)N(Cc1ccccn1)C1CCC(N2CCNCC2)CC1 (centres undefined) | 4740 | – | – | –
17 | N#Cc1ccc(-c2ccc(C(=O)N(Cc3ccccn3)c3ccc(N4CCNCC4)cc3)o2)cc1 | 115 | – | – | –
18 | Cc1noc(C)c1-c1ccccc1CN(C(=O)c1ccc(-c2ccc(C#N)cc2)o1)c1ccc(N2CCNCC2)cc1 | 21 | 1770 | – | –
19 | N#Cc1ccc(-c2ccc(C(=O)N(Cc3ccccc3-c3ccc(C#N)cc3)c3ccc(N4CCNCC4)cc3)o2)cc1 | 8 | 2950 | – | –

The remaining lines, values ahead:

Row | IC50 ([1]; read-out: IC50) [nM] | EC50 (THP-1) [nM] | EC50 [2] [nM] | IC50 [1] | Structure (SMILES)
20 | 258 | – | – | – | Cc1cccc(C)c1-c1ccccc1CN(C(=O)c1ccc(-c2ccc(C#N)cc2)o1)c1ccc(N2CCNCC2)cc1
21 | 110 | 5000 | 350 | – | O=C(c1ccc(-c2ccc(Cl)cc2)o1)N(Cc1ccccn1)c1ccc(N2CCNCC2)cc1
22 | 19 | 1590 | – | – | N#Cc1ccc(-c2ccc(C(=O)N(Cc3ccccc3-c3cccc(C#N)c3)c3ccc(N4CCNCC4)cc3)o2)cc1
23 | – | – | – | Not Active | Cc1cccc(CN(C(=O)c2ccc(-c3ccc(Cl)cc3)o2)c2ccccc2N2CCNCC2)n1
24 | 177 | – | – | – | N#Cc1ccc(-c2ccc(C(=O)N(Cc3ccccc3-c3cccnc3)c3ccc(N4CCNCC4)cc3)o2)cn1
25 | 52 | – | – | – | COc1ncc(-c2ccccc2CN(C(=O)c2ccc(-c3ccc(C#N)cc3)o2)c2ccc(N3CCNCC3)cc2)cn1
26 | – | – | – | Not Active | Cc1cccc(CN(C(=O)c2ccc(-c3ccc(Cl)cc3)o2)c2cccc(N3CCNCC3)c2)n1
27 | 12 | 8400 | – | – | N#Cc1ccc(-c2ccc(C(=O)N(Cc3ccccc3-c3ccncc3)c3ccc(N4CCNCC4)cc3)o2)cc1
28 | 20 | 1960 | – | – | COc1ccccc1-c1ccccc1CN(C(=O)c1ccc(-c2ccc(C#N)cc2)o1)c1ccc(N2CCNCC2)cc1
29 | 1920 | – | – | – | N#Cc1ccc(-c2ccc(C(=O)N(Cc3ccc(-c4ccccc4F)cc3)c3ccc(N4CCNCC4)cc3)o2)cc1
30 | 9 | 1590 | – | – | COc1ccncc1-c1ncccc1CN(C(=O)c1ccc(-c2ccc(C#N)cc2)o1)c1ccc(N2CCNCC2)cc1
31 | 8 | 310 | – | – | COc1ccncc1-c1ccccc1CN(C(=O)c1ccc(-c2ccc(C#N)cc2)o1)c1ccc(N2CCNCC2)cc1
32 | 20 | 1800 | – | – | COc1cncc(-c2ccccc2CN(C(=O)c2ccc(-c3ccc(C#N)cc3)o2)c2ccc(N3CCNCC3)cc2)c1
33 | 285 | – | – | – | Cc1ccccc1-c1ccccc1CN(C(=O)c1ccc(-c2ccc(C#N)cc2)o1)c1ccc(N2CCNCC2)cc1
34 | 128 | – | – | – | N#Cc1ccc(-c2ccc(C(=O)N(Cc3ccc(-c4ccncc4)cc3)c3ccc(N4CCNCC4)cc3)o2)cc1
35 | 79 | – | – | – | Cc1cccc(CN(C(=O)c2ccc(-c3ccc(C#N)cc3)o2)c2ccc(N3CCNCC3)cc2)n1
36 | 24 | – | – | – | COc1cc(-c2ccccc2CN(C(=O)c2ccc(-c3ccc(C#N)cc3)o2)c2ccc(N3CCNCC3)cc2)ccn1
37 | 1450 | – | – | – | N#Cc1ccc(-c2ccc(C(=O)N(Cc3cccc(-c4ccccc4F)c3)c3ccc(N4CCNCC4)cc3)o2)cc1
